# Results taken from patent US20240360165A1, “INHIBITORS OF CYCLIN DEPENDENT KINASE 7 (CDK7)” (Syros Pharmaceuticals, Inc., priority 2016, published 2024).
# Where two headings read alike, the source gives them in different places.
# Assays:
# [1] = target: CDK7/Cyclin H/MAT1 complex (Homo sapiens, UniProt P50613); experiment: CDK7 inhibition assay (Caliper/LabChip EZ Reader kinase assay); format: biochemical; conditions: Table 1; CDK7/Cyclin H/MAT1 6 nM, ATP 2 mM, 35 min at 27° C.
# Summary of the method: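 A Perkin Elmer Caliper/LabChip EZ Reader (Waltham, MA) platform served as the basis for this CDK7 kinase inhibition assay. The work was carried out by Biortus Biosciences, located in Jiangyin, Jiangsu Province, P.R. of China. Each CDK studied had its own kinase assay, and compounds were evaluated for their ability to block CDK7 activity.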
# [2] = target: CDK9/Cyclin T1 complex (Homo sapiens, UniProt P50750); experiment: CDK9 inhibition assay (Caliper/LabChip EZ Reader kinase assay); format: biochemical; conditions: Table 1; CDK9/Cyclin T1 8 nM, ATP 2 mM, 15 min at 27° C.
# Summary of the method: (§1)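 Caliper/LabChip EZ Reader mobility-shift assays. CDK9/Cyclin T1 at 8 nM with 2 μM 5-FAM-CDK9tide peptide and 10 mM MgCl2; CDK2/Cyclin E1 at 0.5 nM with 2 μM 5-FAM-CDK7tide and 2 mM MgCl2.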
# [3] = target: T1, CDK12 (aa686-1082)/Cyclin K complex (Homo sapiens, UniProt Q9NYV4); experiment: CDK12 inhibition assay (Caliper/LabChip EZ Reader kinase assay); format: biochemical; conditions: Table 1; CDK12 (aa686-1082)/Cyclin K 50 nM, ATP 2 mM, 3 hr at 27° C.
# T1 construct: CDK12 (aa686-1082)/Cyclin K complex
# [4] = target: CDK2/Cyclin E1 complex (Homo sapiens, UniProt P24941); experiment: CDK2 inhibition assay (Caliper/LabChip EZ Reader kinase assay); format: biochemical; conditions: Table 1; CDK2/Cyclin E1 0.5 nM, ATP 2 mM, 35 min at 27° C.
# Summary of the method: as §1
# [5] = tested on: A673 cells; experiment: Inhibition of proliferation of A673 cells (CyQUANT, 72 hour); format: cell-based, human; conditions: A673 cells, 72 hour, CyQUANT, read-out: Inhibition of Proliferation of A673 Cells (calculated IC50)
# Summary of the method: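 Human Ewing's sarcoma A673 cells in DMEM with 10% FBS and 1 mM sodium pyruvate, 37° C, 5% CO2, treated 72 h with compound from 4 μM to […] (0.5 log dilutions). Antiproliferative effect read by CyQUANT assay.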
# Chain of CDK9/Cyclin T1 complex (P50750 whole entry, species assumed): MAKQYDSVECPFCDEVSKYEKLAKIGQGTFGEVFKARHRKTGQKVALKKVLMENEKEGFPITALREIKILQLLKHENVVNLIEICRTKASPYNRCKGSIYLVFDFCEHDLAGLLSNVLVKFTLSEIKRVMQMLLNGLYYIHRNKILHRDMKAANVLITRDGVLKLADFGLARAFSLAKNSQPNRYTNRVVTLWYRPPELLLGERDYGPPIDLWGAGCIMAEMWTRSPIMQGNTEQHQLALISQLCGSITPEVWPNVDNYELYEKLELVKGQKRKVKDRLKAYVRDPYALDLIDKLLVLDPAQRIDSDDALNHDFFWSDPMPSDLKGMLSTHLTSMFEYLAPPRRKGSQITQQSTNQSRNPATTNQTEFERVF
# Chain of CDK9/Cyclin T1 complex (O60563 whole entry partner, species assumed): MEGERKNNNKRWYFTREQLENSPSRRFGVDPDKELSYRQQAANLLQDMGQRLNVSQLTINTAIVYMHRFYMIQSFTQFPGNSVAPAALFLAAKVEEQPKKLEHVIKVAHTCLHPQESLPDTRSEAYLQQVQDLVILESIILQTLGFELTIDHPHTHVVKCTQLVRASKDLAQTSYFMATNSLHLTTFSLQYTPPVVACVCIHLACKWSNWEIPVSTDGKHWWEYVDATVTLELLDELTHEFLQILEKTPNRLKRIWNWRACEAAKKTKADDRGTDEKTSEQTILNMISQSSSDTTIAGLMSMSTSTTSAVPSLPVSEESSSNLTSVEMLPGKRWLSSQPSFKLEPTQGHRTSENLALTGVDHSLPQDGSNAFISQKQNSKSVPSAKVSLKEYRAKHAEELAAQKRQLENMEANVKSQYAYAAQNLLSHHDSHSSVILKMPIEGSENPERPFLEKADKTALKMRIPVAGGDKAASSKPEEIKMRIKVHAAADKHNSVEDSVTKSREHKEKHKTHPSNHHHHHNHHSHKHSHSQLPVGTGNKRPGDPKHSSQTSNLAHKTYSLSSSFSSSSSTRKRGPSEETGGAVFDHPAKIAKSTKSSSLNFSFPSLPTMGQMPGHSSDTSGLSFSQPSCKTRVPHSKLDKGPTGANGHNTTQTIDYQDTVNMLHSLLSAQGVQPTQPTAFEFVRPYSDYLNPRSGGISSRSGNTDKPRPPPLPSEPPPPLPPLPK
# T1 sequence (Q9NYV4 686-1082, species assumed): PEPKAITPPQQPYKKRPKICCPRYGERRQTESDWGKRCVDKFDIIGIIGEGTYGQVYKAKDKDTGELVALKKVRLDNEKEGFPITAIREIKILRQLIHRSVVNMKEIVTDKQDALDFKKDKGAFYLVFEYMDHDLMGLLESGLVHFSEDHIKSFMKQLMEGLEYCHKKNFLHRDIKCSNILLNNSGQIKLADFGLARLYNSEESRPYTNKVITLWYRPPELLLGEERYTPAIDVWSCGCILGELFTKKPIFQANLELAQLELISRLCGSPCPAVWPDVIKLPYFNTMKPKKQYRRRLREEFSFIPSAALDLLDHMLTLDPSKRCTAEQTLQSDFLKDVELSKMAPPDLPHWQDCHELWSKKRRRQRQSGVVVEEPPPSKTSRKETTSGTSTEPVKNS
# T1 sequence (O75909 whole entry partner, species assumed, the tested form may be a part): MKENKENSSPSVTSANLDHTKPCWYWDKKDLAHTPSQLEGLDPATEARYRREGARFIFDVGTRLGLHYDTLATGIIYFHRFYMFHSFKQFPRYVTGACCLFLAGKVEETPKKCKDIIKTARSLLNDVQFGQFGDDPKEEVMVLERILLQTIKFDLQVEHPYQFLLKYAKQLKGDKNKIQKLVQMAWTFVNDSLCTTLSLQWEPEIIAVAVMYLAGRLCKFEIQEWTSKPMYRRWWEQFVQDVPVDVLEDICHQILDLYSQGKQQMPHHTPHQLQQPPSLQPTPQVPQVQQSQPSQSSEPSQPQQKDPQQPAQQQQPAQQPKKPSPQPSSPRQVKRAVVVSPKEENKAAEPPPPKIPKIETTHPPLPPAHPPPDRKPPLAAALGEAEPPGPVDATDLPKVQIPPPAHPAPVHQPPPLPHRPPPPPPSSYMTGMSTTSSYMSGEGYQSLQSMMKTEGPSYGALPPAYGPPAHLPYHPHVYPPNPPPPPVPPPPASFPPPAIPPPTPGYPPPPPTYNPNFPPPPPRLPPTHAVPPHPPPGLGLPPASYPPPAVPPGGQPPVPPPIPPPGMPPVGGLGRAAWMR
# Chain of CDK7/Cyclin H/MAT1 complex (P50613 whole entry, species assumed): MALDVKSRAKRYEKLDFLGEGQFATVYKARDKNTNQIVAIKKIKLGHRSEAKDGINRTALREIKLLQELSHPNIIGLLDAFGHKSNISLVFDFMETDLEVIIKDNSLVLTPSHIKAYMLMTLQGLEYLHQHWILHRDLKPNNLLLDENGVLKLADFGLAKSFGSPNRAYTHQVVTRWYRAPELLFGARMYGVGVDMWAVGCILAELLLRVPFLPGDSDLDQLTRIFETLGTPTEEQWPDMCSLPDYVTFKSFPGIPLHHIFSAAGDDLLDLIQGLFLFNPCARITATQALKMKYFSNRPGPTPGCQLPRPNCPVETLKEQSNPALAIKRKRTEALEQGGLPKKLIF
# Chain of CDK7/Cyclin H/MAT1 complex (P51946 whole entry partner, species assumed): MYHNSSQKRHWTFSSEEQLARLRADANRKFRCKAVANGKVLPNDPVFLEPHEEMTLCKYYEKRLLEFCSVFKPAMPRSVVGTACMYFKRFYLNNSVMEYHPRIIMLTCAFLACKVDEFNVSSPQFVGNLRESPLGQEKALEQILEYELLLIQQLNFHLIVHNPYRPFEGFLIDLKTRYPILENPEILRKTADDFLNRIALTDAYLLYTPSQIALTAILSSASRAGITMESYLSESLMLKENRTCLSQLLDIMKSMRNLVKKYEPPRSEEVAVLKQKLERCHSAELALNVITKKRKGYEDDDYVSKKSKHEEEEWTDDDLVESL
# Chain of CDK7/Cyclin H/MAT1 complex (P51948 whole entry partner, species assumed): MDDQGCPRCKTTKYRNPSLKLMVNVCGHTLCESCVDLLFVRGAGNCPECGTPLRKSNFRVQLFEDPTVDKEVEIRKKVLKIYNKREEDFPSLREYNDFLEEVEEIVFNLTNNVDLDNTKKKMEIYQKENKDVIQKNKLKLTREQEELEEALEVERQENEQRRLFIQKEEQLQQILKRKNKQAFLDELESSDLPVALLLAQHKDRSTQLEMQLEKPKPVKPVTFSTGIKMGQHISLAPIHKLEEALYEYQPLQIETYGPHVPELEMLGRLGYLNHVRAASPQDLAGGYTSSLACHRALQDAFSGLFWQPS
smiles,measurement,setting,value
"Cn1cc(-c2ccc3c(-c4nc(N[C@H]5CCCNC5)ncc4C(F)(F)F)c[nH]c3c2)cc1C#N [Compound 225, 1-methyl-4-[3-[2-[[(3S)-3-piperidyl]amino]-5-(trifluoromethyl)pyrimidin-4-yl]-1H-indol-6-yl] pyrrole-2-carbonitrile]",IC50,[1],< 20 nM
same,IC50,[2],200 to 5000 nM
same,IC50,[3],200 to 5000 nM
same,IC50,[4],200 to 5000 nM
same,IC50,"[5]; Homo sapiens, A673, 72 h",20 to 200 nM
"Clc1cnc(N[C@@H]2CN3CCC2CC3)nc1-c1c[nH]c2ccccc12 [Compound 131, (S)—N-(5-chloro-4-(1H-indol-3-yl)pyrimidin-2-yl)quinuclidin-3-amine]",IC50,[1],> 5000 nM
same,IC50,[2],> 5000 nM
same,IC50,[3],> 5000 nM
same,IC50,[4],> 5000 nM
same,IC50,"[5]; Homo sapiens, A673, 72 h",200 to 5000 nM
Cc1nn(C)cc1-c1cccc2c(-c3nc(N[C@H]4CCCNC4)ncc3C(F)(F)F)c[nH]c12 [Compound 171],IC50,[1],< 20 nM
same,IC50,[2],200 to 5000 nM
same,IC50,[3],200 to 5000 nM
same,IC50,[4],200 to 5000 nM
same,IC50,"[5]; Homo sapiens, A673, 72 h",< 20 nM
"CS(=O)(=O)c1cccn2c([C@H]3CCC[C@@H](Nc4ncc(C(F)(F)F)c(-c5c[nH]c6ccccc56)n4)C3)nnc12 [Compound 265, 4-(1H-indol-3-yl)-N-[(1R,3S)-3-(8-methylsulfonyl-[1,2,4]triazolo [4,3-a]pyridin-3-yl)cyclohexyl]-5-(trifluoromethyl) pyrimidin-2-amin]",IC50,[1],200 to 5000 nM
same,IC50,[2],200 to 5000 nM
same,IC50,[3],200 to 5000 nM
same,IC50,[4],200 to 5000 nM
same,IC50,"[5]; Homo sapiens, A673, 72 h",20 to 200 nM
CC[C@H]1CC[C@H](Nc2ncc(C(F)(F)F)c(-c3c[nH]c4ccccc34)n2)CN1 [Compound 217],IC50,[1],< 20 nM
same,IC50,[2],200 to 5000 nM
same,IC50,[3],200 to 5000 nM
same,IC50,[4],200 to 5000 nM
same,IC50,"[5]; Homo sapiens, A673, 72 h",20 to 200 nM
CCOP(=O)(OCC)c1cccc2c(-c3nc(N[C@H]4CCCNC4)ncc3C(F)(F)F)c[nH]c12 [Compound 168],IC50,[1],200 to 5000 nM
same,IC50,[2],> 5000 nM
same,IC50,[3],> 5000 nM
same,IC50,[4],> 5000 nM
same,IC50,[5]; Homo sapiens,200 to 5000 nM
CCS(=O)(=O)c1ccc2c(-c3nc(N[C@H]4CCCNC4)ncc3C(F)(F)F)c[nH]c2c1 [Compound 274],IC50,[1],< 20 nM
same,IC50,[2],200 to 5000 nM
same,IC50,[3],200 to 5000 nM
same,IC50,[4],200 to 5000 nM
same,IC50,"[5]; Homo sapiens, A673, 72 h",20 to 200 nM
FC(F)(F)c1cnc(N[C@H]2CNC[C@@H](c3nnc4ccccn34)C2)nc1-c1c[nH]c2ccccc12 [Compound 268],IC50,[1],200 to 5000 nM
same,IC50,[2],> 5000 nM
same,IC50,[3],200 to 5000 nM
same,IC50,[4],> 5000 nM
same,IC50,[5],200 to 5000 nM
"CCC(=O)N[C@@H]1CNC[C@H](Nc2ncc(C(F)(F)F)c(-c3c[nH]c4c(S(C)(=O)=O)cccc34)n2)C1 (single isomer, unassigned) [Compound 259]",IC50,[1],< 20 nM
same,IC50,[2],200 to 5000 nM
same,IC50,[3],200 to 5000 nM
same,IC50,[4],200 to 5000 nM
same,IC50,"[5]; Homo sapiens, A673, 72 h",20 to 200 nM
CCCCCC1CC[C@H](Nc2ncc(C(F)(F)F)c(-c3c[nH]c4ccccc34)n2)CN1 (mixture of isomers) [Compound 241],IC50,[1],20 to 200 nM
same,IC50,[2],200 to 5000 nM
same,IC50,[3],200 to 5000 nM
same,IC50,[4],200 to 5000 nM
same,IC50,"[5]; Homo sapiens, A673, 72 h",20 to 200 nM
CC(C)N1CCC[C@H](Nc2ncc(Cl)c(-c3c[nH]c4ccccc34)n2)C1 [Compound 148],IC50,[1],20 to 200 nM
same,IC50,[2],200 to 5000 nM
same,IC50,[3],200 to 5000 nM
same,IC50,[4],> 5000 nM
same,IC50,"[5]; Homo sapiens, A673, 72 h",20 to 200 nM
COCCN1CCC[C@H](Nc2ncc(Cl)c(-c3c[nH]c4ccccc34)n2)C1 [Compound 149],IC50,[1],20 to 200 nM
same,IC50,[2],200 to 5000 nM
same,IC50,[3],200 to 5000 nM
same,IC50,[4],200 to 5000 nM
same,IC50,[5],20 to 200 nM
"O=C(c1ccc2c(-c3nc(N[C@H]4CCCNC4)ncc3C(F)(F)F)c[nH]c2c1)N1CC[C@H](O)C1 [Compound 204, [(3S)-3-hydroxypyrrolidin-1-yl]-[3-[2-[[(3S)-3-piperidyl]amino]-5-(trifluoromethyl)pyrimidin-4-yl]-1H-indol-6-yl]methanone]",IC50,[1],< 20 nM
same,IC50,[2],> 5000 nM
same,IC50,[3],200 to 5000 nM
same,IC50,[4],> 5000 nM
same,IC50,"[5]; Homo sapiens, A673, 72 h",200 to 5000 nM
CC(C)(O)CCc1cccc2c(-c3nc(N[C@H]4CCCNC4)ncc3C(F)(F)F)c[nH]c12 [Compound 191],IC50,[1],< 20 nM
same,IC50,[2],200 to 5000 nM
same,IC50,[3],200 to 5000 nM
same,IC50,[4],200 to 5000 nM
same,IC50,[5],< 20 nM
